In test [1] the test system is SIVmac251. As to the kind of experiment: Blood CD4+ lymphocyte count in SIVmac251-infected Rhesus monkey. It counts as in vivo. The text has this: They were fed with commercial popped feeds.
Measurement of blood CD4^+ count: Blood samples were drawn from the animals before infection and 14, 28, 42 and 60 days after infection with SIVmac251 Ficoll lymphocyte separation fluid was adopted to isolate the peripheral lymphocytes. After tagging the anti-CD4 monoclonal antibody with direct fluorescence, the cells were counted on FACS machine to obtain the CD4^+ percentage. In combination with WBC count with DC of routine blood examination, the total count of blood CD4^+ lymphocytes was calculated. • 1.

Test [2] has as its system SIVmac251. As to the kind of experiment: Plasma viral load in SIVmac251-infected Rhesus monkey. The following applies: within the dosing range.
From the text: Experiment animals: 5 females and 5 males Rhesus monkey as experimental animal with 4.5-5.5 Kg/each for a total of 10 were used, purchased from Primate Breeding Center, Research Institute of Experimental Animals, Chinese Academy of Medical Sciences. They were fed with commercial popped feeds. No abnormal physical examination was found before the experiment. Potential infections with SIV, SRV Type D and STLV-I were excluded by the serum IFA antibody test.
Each animal was intravenously infected with 1 ml virus solution equivalent to 3MID100 viral load.
Within each group, there were 3-4 animals with equal females and males. […] No drug treatment was offered for SIVmac251 infection control group.
Observation pre- and post-infection: Besides other pre-infection physical examinations, body weight and blood-drawing were made for each monkey (conducting all parameter tests). […] At the pre-determined timepoints, blood was drawn for the monkey to measure the plasma viral titer, blood CD4^+ count and antibody titre. […]
Plasma virus isolation: After the animals were infected with SIVmac251, to collect the blood samples were collected respectively at Days 7, 11, 14, 21, 28, 42, 60 and the plasma were separated by heparin anti-clotting. […] The viral titre was chosen for the sample with the lowest inoculation quantity but showing the typical patterns of cellular confluence. […]

With `Cc1cn([C@H]2C[C@H](N=[N+]=[N-])[C@@H](CO)O2)c(=O)[nH]c1=O` [AZT], in test [1] (2 and 4 weeks post-infection), the “CD4 cells spared of the viral attacks (protected)” value is listed as 35%. For the same molecule, the “CD4+ lymphocytes” value is 714.51 in test [1] (2 week infection); 540.57 in test [1] (4 week); 543.31 in test [1] (6 week); 530.95 in test [1] (8 w); 959.86 in test [1] (Pre-experiment). The “CD4+ lymphocytes, Difference with control” value is given as 187.21 in test [1] (2 week infection), 137.96 in test [1] (4 week) and 83.24 in test [1] (6 week). Besides, the “CD4+ lymphocytes, Difference with control (%)” value in test [1] (2 week infection) is recorded as “(35.5%)”; in test [1] (4 week) it was “(34.27%)”; in test [1] (6 week), “(18.09%)”; in test [1] (8 w), “(43.0%)”. In addition, in test [2], the “inhibition rate upon SIV” value was “over 90%”.
